Legend:
hCA IX [1] = molecular target: T1, hCA IX (Homo sapiens, UniProt Q16790); test: stopped-flow CO2 hydrase assay; format: biochemical
T1 construct: gene CA9; recombinant, obtained in-house

hCA XII [2] = molecular target: T2, hCA XII (Homo sapiens, UniProt O43570); test: biochemical; parameters: Stopped-flow CO2 hydrase assay, phenol red absorbance at 557 nm, KI by Cheng-Prusoff
T2 construct: gene CA12; recombinant, obtained in-house
Method: (§1) An Applied Photophysics stopped-flow instrument has been used for assaying the CA catalysed CO2 hydration activity. Phenol red (at a concentration of 0.2 mM) has been used as indicator, working at the absorbance maximum of 557 nm, with 20 mM Hepes (pH 7.5) as buffer, and 20 mM Na2SO4 (for maintaining constant the ionic strength), following the initial rates of the CA-catalyzed CO2 hydration reaction for a period of 10–100 s. The CO2 concentrations ranged from 1.7 to 17 mM for the determination of the kinetic parameters and inhibition constants. For each inhibitor at least six traces of the initial 5–10% of the reaction have been used for determining the initial velocity. The uncatalyzed rates were determined in the same manner and subtracted from the total observed rates. Stock solutions of inhibitor (0.1 mM) were prepared in distilled-deionized water and dilutions up to 0.01 nM were done thereafter with the assay buffer. Inhibitor and enzyme solutions were preincubated together for 15 min at room temperature prior to assay, to allow for the formation of the E-I complex. The inhibition constants were obtained by non-linear least-squares methods using PRISM 3 and the Cheng–Prusoff equation, as reported earlier, and represent the mean from at least three different determinations. All CA isoforms were recombinant ones obtained in-house as reported earlier. […] DCH/CO-RM derivatives 1–10 were therefore investigated as inhibitors of the hCAs I, II, IX, and XII by means of the Stopped-Flow CO2 hydrase assay.

hCA IX [3] = molecular target: T1, hCA IX; test: biochemical; parameters: Stopped-flow CO2 hydrase assay, phenol red absorbance at 557 nm, KI by Cheng-Prusoff
Method: as §1

hCA XII [4] = molecular target: T2, hCA XII; test: stopped-flow CO2 hydrase assay; format: biochemical; conditions: CO2 […], […] Hepes pH […] Na2SO4, […] min preincubation at room temperature
hCA IX [5] = molecular target: T1, hCA IX; test: stopped-flow CO2 hydrase assay; format: biochemical; conditions: CO2 […], […] Hepes pH […] Na2SO4, […] min preincubation at room temperature
hCA I = molecular target: T3, hCA I (Homo sapiens, UniProt P00915); test: biochemical; parameters: Stopped-flow CO2 hydrase assay, phenol red absorbance at 557 nm, KI by Cheng-Prusoff
T3 construct: gene CA1; recombinant, obtained in-house
T3 sequence (P00915 2-261): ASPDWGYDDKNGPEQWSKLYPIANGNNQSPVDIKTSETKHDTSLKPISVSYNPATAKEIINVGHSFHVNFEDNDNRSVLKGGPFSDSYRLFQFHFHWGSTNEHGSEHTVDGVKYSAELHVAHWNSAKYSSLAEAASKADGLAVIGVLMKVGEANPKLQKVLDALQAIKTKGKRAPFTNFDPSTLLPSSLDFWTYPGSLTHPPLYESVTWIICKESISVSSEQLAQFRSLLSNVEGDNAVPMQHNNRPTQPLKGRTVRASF
Method: as §1

hCA II = molecular target: T4, hCA II (Homo sapiens, UniProt P00918); test: biochemical; parameters: Stopped-flow CO2 hydrase assay, phenol red absorbance at 557 nm, KI by Cheng-Prusoff
T4 construct: gene CA2; recombinant, obtained in-house
Method: as §1

hCA XII [6] = molecular target: T2, hCA XII; test: stopped-flow CO2 hydrase assay; format: biochemical

T2 sequence (O43570 30-289 limits assumed): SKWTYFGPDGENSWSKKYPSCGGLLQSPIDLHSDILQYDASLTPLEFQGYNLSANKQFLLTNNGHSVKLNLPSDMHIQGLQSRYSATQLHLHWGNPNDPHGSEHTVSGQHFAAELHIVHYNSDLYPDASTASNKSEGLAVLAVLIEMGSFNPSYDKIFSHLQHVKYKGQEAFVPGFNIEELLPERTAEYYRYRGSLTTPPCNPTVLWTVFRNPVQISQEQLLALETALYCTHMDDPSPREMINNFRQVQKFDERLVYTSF

Compound	Ki (hCA XII [2]) [nM]	Ki (hCA IX [3]) [nM]	Ki (hCA I) [nM]	Ki (hCA II) [nM]	further results
C#CCOC1=NS(=O)(=O)OC(C)=C1 [a]	–	–	–	–	Ki (hCA IX [1]; CO2 […], […] Hepes pH […] Na2SO4, […] min preincubation at room temperature): 252 nM
C#CCN1C(=O)C=C(C)OS1(=O)=O [b, 6-methyl-3-(prop-2-yn-1-yl)-1,2,3-oxathiazin-4(3H)-one 2,2-dioxide]	378	358	–	–	KI (hCA XII [4]): Compounds a and b showed better inhibitory activity against isoform XII; KI (hCA IX [5]): compound b exhibited a loss of inhibitory activity after the CO releasing group linkage
C#CCOc1cccc2cc(C(=O)c3ccccc3)c(=O)oc12 [f, 3-benzoyl-8-(prop-2-yn-1-yloxy)-2H-chromen-2-one]	4920	–	> 100000	> 100000	KI (hCA XII [4]): maintained unchanged their inhibitory activity against hCA XII; Ki (hCA IX [1]): 695 nM
C#CCOc1ccc2oc(=O)c(C(=O)c3ccccc3)cc2c1 [g, 3-benzoyl-6-(prop-2-yn-1-yloxy)-2H-chromen-2-one]	–	–	–	–	Ki (hCA XII [6]): 353 nM; Ki (hCA IX [1]): 315 nM
C#CCOc1cccc2cc(C(=O)OCC)c(=O)oc12 [h, ethyl 2-oxo-8-(prop-2-yn-1-yloxy)-2H-chromene-3-carboxylate]	–	–	> 100000	> 100000	–
C#CCOc1ccc(C2=NN(C(C)=O)C(c3ccccc3OC)C2)cc1 (stereo not shown) [i]	> 100000	> 100000	> 100000	> 100000	–
C#CCOc1ccc(-c2nc3ccccc3n2-c2ccccc2)cc1 [l]	> 100000	> 100000	> 100000	> 100000	–

From PMC7824903, “Dual Carbonic Anhydrase IX/XII Inhibitors and Carbon Monoxide Releasing Molecules Modulate LPS-Mediated Inflammation in Mouse Macrophages” (Antioxidants, 2021)
